In patent US20080292584A1 (priority 2005, published 2008):
Several values for one entry are separate records, joined by “and”; a condition that tells them apart may be missing. Equal entries are not always repeated.

Legend:
CYP2A6 = molecular target: T1, CYP2A6 (Homo sapiens, UniProt P11509); assay: Inhibition of CYP2A6 activity in pooled human liver microsomes (coumarin 8 μM to 7-hydroxy coumarin); assay type: in vitro ADME
T1 sequence (P11509 1-494): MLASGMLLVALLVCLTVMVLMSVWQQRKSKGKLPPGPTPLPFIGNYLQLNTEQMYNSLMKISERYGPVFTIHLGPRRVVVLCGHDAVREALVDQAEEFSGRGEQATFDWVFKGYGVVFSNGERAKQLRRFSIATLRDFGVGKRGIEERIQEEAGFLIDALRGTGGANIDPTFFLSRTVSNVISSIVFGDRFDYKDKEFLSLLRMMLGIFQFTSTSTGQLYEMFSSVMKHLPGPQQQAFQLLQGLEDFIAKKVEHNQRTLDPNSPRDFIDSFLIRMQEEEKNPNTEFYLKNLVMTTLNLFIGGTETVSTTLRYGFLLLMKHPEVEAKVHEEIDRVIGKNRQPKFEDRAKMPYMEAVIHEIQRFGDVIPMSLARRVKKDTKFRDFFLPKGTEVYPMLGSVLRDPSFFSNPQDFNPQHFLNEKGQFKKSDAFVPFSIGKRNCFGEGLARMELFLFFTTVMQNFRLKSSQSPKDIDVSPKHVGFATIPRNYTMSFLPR
Procedure: (§1) All other incubations were for 30 minutes.
(§2) Four replicates were performed.
(§3) Two replicates were performed.

CYP2B6 [1] = molecular target: T2, CYP2B6 (Homo sapiens, UniProt P20813); assay: Inhibition of CYP2B6 activity in pooled human liver microsomes (S-mephenytoin 1 mM to nirvanol); assay type: in vitro ADME
T2 sequence (P20813 1-491): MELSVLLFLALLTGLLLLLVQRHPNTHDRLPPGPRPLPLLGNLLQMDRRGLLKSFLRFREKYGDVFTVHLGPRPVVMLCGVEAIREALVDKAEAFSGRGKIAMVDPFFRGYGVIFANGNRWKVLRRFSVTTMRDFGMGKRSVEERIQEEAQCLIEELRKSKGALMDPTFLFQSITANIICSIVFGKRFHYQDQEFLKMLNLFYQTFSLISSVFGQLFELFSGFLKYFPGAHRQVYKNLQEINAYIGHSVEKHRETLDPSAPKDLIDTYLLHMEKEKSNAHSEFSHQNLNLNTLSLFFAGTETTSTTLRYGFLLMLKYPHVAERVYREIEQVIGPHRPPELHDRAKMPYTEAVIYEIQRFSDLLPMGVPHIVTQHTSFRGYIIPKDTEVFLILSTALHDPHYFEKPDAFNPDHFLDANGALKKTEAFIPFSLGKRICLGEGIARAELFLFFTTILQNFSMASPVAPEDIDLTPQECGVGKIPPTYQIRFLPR
Procedure: as §1, §2, §3

CYP2B6 [2] = assay: Induction/inhibition of CYP2B6 activity in cryopreserved human hepatocytes (S-mephenytoin); conditions: human; for Nirvanol formation Adjusted Mean ± SD: 48 h
Excerpt: Hepatocytes from three human donors were obtained from a cryopreserved hepatocyte bank (In Vitro Technologies, Inc., USA). After thawing, viable hepatocytes were transferred to collagen-coated 48-well plates for attachment in plating medium (DMEM stock (Dulbecco's modified Eagle's medium, supplemented with bovine serum albumin, fructose, N-(2-hydroxyethyl)piperazine-N′-(2-ethanesulfonate) (HEPES), and sodium bicarbonate), supplemented with antibiotics, bovine serum, hydrocortisone, insulin and minimum essential medium (MEM) nonessential amino acids). After attachment to the collagen matrix, plating medium was replaced with sandwich medium (plating medium supplemented with VITROGEN) and incubated until use.
The supplemented KHB was replaced with 150 μL supplemented KHB containing the appropriate isoform-selective substrate and incubated for 4 hrs prior to termination by adding 150 μL ice-cold methanol, except for the CYP2C8 incubations which were terminated by adding 150 μL acetonitrile.
All substrates were dissolved in acetonitrile.
Replicate trials and controls were performed. […] Additionally, reference control samples were included to evaluate inducibility of CYP2B6, CYP2C9, and CYP2C19 in the test system.
Mean specific activity values with associated p-values≦0.05 were deemed to be statistically significant.

[3] = Metaxalone turnover in pooled human liver microsomes without inhibitor (LC-MS/MS); conditions: for % Turnover Mean / Mean Conc. / % Turnover / Conc. / Mean metaxalone disappearance: 1 mg/mL microsomal protein; for % Turnover Mean / Mean Conc. / % Turnover / Conc.: 60 min, no inhibitor; for % Turnover / Conc.: single replicates
Procedure: Stocks were diluted daily in the appropriate buffers such that the final organic solvent concentration was <1%.
The reactions, in 0.1 M phosphate buffer, pH 7.4, were initiated by addition of 1 mM NADPH. Negative controls (no NADPH and heat-treated microsomes) were included to account for any non-enzymatic or non-NADPH dependent reactions. The reactions were terminated at the appropriate time points by addition of 1 volume (relative to total reaction volume) of methanol. The samples were centrifuged at approximately 3000 rpm and the clear supernatant was transferred to a clean tube and analyzed by the LC-MS/MS method described above.

Q: For `Cc1cc(C)cc(OCC2CNC(=O)O2)c1` (stereo not drawn) [metaxalone, 5-[(3,5-dimethylphenoxy)methyl]-2-oxazolidinone], which “inhibition of CYP activity at a statistically significant level” value (CYP2A6; 0.3-100 μM metaxalone) is on record?
A: no tested concentration of metaxalone inhibited activity

Q: What about the Inhibitor (CYP2A6; CYP isozyme 2A6, summary of studies) of the same molecule?
A: 0

Q: What about the “Percent of VC” value (CYP2A6; metaxalone 0.3 μM) of the same molecule?
A: 96.9%

Q: What about the “Specific Activity Individual” value (CYP2A6; metaxalone 0.3 μM) of the same molecule?
A: 430 pmol/min/mg protein and 398 pmol/min/mg protein and 410 pmol/min/mg protein

Q: What about the “Specific Activity Mean ± SD” value (CYP2A6; metaxalone 0.3 μM) of the same molecule?
A: 413 ± 16.0 pmol/min/mg protein

Q: What about the “Percent of VC” value (CYP2A6; metaxalone 1 μM) of the same molecule?
A: 95.7%

Q: And the “Specific Activity Individual” value (CYP2A6; metaxalone 1 μM)?
A: 399 pmol/min/mg protein and 409 pmol/min/mg protein and 414 pmol/min/mg protein

Q: And the “Specific Activity Mean ± SD” value (CYP2A6; metaxalone 1 μM)?
A: 407 ± 7.36 pmol/min/mg protein

Q: What about the “Percent of VC” value (CYP2A6; metaxalone 3 μM) of the same molecule?
A: 102%

Q: And the “Specific Activity Individual” value (CYP2A6; metaxalone 3 μM)?
A: 420 pmol/min/mg protein and 453 pmol/min/mg protein and 435 pmol/min/mg protein

Q: And the “Specific Activity Mean ± SD” value (CYP2A6; metaxalone 3 μM)?
A: 436 ± 16.1 pmol/min/mg protein

Q: And the “Percent of VC” value (CYP2A6; metaxalone 30 μM)?
A: 107%

Q: And the “Specific Activity Individual” value (CYP2A6; metaxalone 30 μM)?
A: 433 pmol/min/mg protein and 461 pmol/min/mg protein and 471 pmol/min/mg protein

Q: What about the “Specific Activity Mean ± SD” value (CYP2A6; metaxalone 30 μM) of the same molecule?
A: 455 ± 19.7 pmol/min/mg protein

Q: And the “Percent of VC” value (CYP2A6; metaxalone 100 μM)?
A: 94.8%

Q: And the “Specific Activity Individual” value (CYP2A6; metaxalone 100 μM)?
A: 395 pmol/min/mg protein and 393 pmol/min/mg protein and 423 pmol/min/mg protein

Q: What about the “Specific Activity Mean ± SD” value (CYP2A6; metaxalone 100 μM) of the same molecule?
A: 404 ± 16.6 pmol/min/mg protein

Q: What about the “inhibition of CYP activity at a statistically significant level” value (CYP2B6 [1]; 0.3-100 μM metaxalone, p≦0.05) of the same molecule?
A: inhibited

Q: And the Inhibitor (CYP2B6 [1]; CYP isozyme 2B6, summary of studies)?
A: +

Q: What about the “Percent of VC” value (CYP2B6 [1]; metaxalone 0.3 μM) of the same molecule?
A: 90.2%

Q: What about the “Specific Activity Individual” value (CYP2B6 [1]; metaxalone 0.3 μM) of the same molecule?
A: 27.9 pmol/min/mg protein and 25.6 pmol/min/mg protein and 27.5 pmol/min/mg protein

Q: What about the “Specific Activity Mean ± SD” value (CYP2B6 [1]; metaxalone 0.3 μM) of the same molecule?
A: 27.0 ± 1.21 pmol/min/mg protein

Q: And the “Percent of VC” value (CYP2B6 [1]; metaxalone 1 μM)?
A: 99.5%

Q: And the “Specific Activity Individual” value (CYP2B6 [1]; metaxalone 1 μM)?
A: 27.3 pmol/min/mg protein and 29.5 pmol/min/mg protein and 32.6 pmol/min/mg protein

Q: What about the “Specific Activity Mean ± SD” value (CYP2B6 [1]; metaxalone 1 μM) of the same molecule?
A: 29.8 ± 2.68 pmol/min/mg protein

Q: And the “Percent of VC” value (CYP2B6 [1]; metaxalone 3 μM)?
A: 90.6%

Q: What about the “Specific Activity Individual” value (CYP2B6 [1]; metaxalone 3 μM) of the same molecule?
A: 26.3 pmol/min/mg protein and 26.9 pmol/min/mg protein and 28.2 pmol/min/mg protein

Q: And the “Specific Activity Mean ± SD” value (CYP2B6 [1]; metaxalone 3 μM)?
A: 27.1 ± 1.00 pmol/min/mg protein

Q: And the “Percent of VC” value (CYP2B6 [1]; metaxalone 30 μM)?
A: 96.6%

Q: And the “Specific Activity Individual” value (CYP2B6 [1]; metaxalone 30 μM)?
A: 28.9 pmol/min/mg protein and 28.7 pmol/min/mg protein and 29.2 pmol/min/mg protein

Q: What about the “Specific Activity Mean ± SD” value (CYP2B6 [1]; metaxalone 30 μM) of the same molecule?
A: 28.9 ± 0.216 pmol/min/mg protein

Q: And the “Percent of VC” value (CYP2B6 [1]; metaxalone 100 μM)?
A: 83.7%

Q: What about the “Specific Activity Individual” value (CYP2B6 [1]; metaxalone 100 μM) of the same molecule?
A: 24.9 pmol/min/mg protein and 24.6 pmol/min/mg protein and 25.7 pmol/min/mg protein

Q: And the “Specific Activity Mean ± SD” value (CYP2B6 [1]; metaxalone 100 μM)?
A: 25.1 ± 0.581 pmol/min/mg protein

Q: What about the Inducer/Inhibitor (CYP2B6 [2]) of the same molecule?
A: 0

Q: What about the “Nirvanol formation Adjusted Mean ± SD” value (CYP2B6 [2]; 0.4 μM) of the same molecule?
A: 0.0340 ± 0.000883 µM

Q: What about the “Nirvanol formation Adjusted Mean ± SD” value (CYP2B6 [2]; 4 μM) of the same molecule?
A: 0.0305 ± 0.00272 µM

Q: What about the “% Turnover Mean” value ([3]; 0.75 μM metaxalone) of the same molecule?
A: 29.8%

Q: What about the “Mean Conc.” value ([3]; 0.75 μM metaxalone) of the same molecule?
A: 0.542 µM

Q: What about the “% Turnover” value ([3]; 0.75 μM metaxalone) of the same molecule?
A: 30.5% and 27.3% and 31.5%

Q: And the “Conc.” value ([3]; 0.75 μM metaxalone)?
A: 0.536 µM and 0.561 µM and 0.529 µM

Q: What about the Mean metaxalone disappearance ([3]; 0.75 μM metaxalone, 60 minutes) of the same molecule?
A: 29.8±1.3%

Q: What about the “% Turnover Mean” value ([3]; 7.5 μM metaxalone) of the same molecule?
A: 24.6%

Q: What about the “Mean Conc.” value ([3]; 7.5 μM metaxalone) of the same molecule?
A: 6.42 µM

Q: What about the “% Turnover” value ([3]; 7.5 μM metaxalone) of the same molecule?
A: 24.8% and 23.9% and 25.1%

Q: And the “Conc.” value ([3]; 7.5 μM metaxalone)?
A: 6.40 µM and 6.48 µM and 6.38 µM

Q: And the Mean metaxalone disappearance ([3]; 7.5 μM metaxalone, 60 minutes)?
A: 24.6±0.3%

Q: What about the maximum turnover ([3]; 60 minutes, 1 mg/mL protein, NADPH-dependent) of the same molecule?
A: 38.0%
